IC50 data for one compound are collected here from article PMC6781459, “The study of antimicrobial, anti-cancer, anti-inflammatory and α-glucosidase inhibitory activities of Nigronapthaphenyl, isolated from an extract of Nigrospora sphaerica” (Mycology, 2019).

The target of the assay is α-glucosidase. As to the kind of experiment: α-glucosidase inhibition assay (no method or enzyme source described). It counts as biochemical.

On to `COc1cc(OC)c2cc(C(=O)c3ccccc3)ccc2c1OC` [Nigronapthaphenyl], for which 6.9 ± 0.5 µM corresponded to half-maximal inhibition (IC50).
